Laboratory results published in PubChem BioAssay AID489006 (Sanford-Burnham Center for Chemical Genomics, 2010).
Calls of active or inactive are those of the source. No rule for the calls is given here.

Test system: Jurkat NF-kB reporter, luminescence
Experiment: Jurkat NF-kB signaling inhibitors – cell-based, luminescence, selectivity assay for B-cell receptor NF-kB inhibitor project, dose response (AID 489006)

Structure (SMILES) | IC50
COc1ccc(/C=C2\SC(=O)N(CCCC(=O)Nc3ccc(C(=O)O)cc3)C2=O)cc1OC | 29.4 µM (inactive)
Cc1cc(C)cc(N2C(=O)NC(=O)/C(=C\c3cccn3-c3ccccc3)C2=O)c1 | 16.4 µM
CC(=O)C1=NN(c2ccccc2)C(c2cccs2)N1c1ccc(N(C)C)cc1 (stereo not given) | > 80 µM (inactive)
CC1(c2nnc(-c3cccc(Cl)c3)o2)CC(c2cccc(Cl)c2)=NO1 (stereo not given) | > 80 µM (inactive)
CC1=CC(C)(C)Nc2ccc(OC(=O)c3cccnc3)cc21 | 1.17 µM
CCn1c(=O)cc(SCC(=O)N2CCC(C)CC2)c2ccccc21 | > 80 µM (inactive)
Cn1nnnc1Sc1ncnc2scc(Br)c12 | 1.13 µM
ClCc1nnc(-c2ccccc2)o1 | 10.5 µM
O=C(CCCN1C(=O)S/C(=C\C=C\c2ccccc2)C1=O)Nc1ccc(O)cc1 | > 80 µM (inactive)
Cc1ccc(Nc2nc(N/N=C\c3ccc4c(c3)OCO4)nc(N3CCOCC3)n2)cc1 | 70.3 µM (inactive)
COc1ccc(NC(=O)c2cc(-c3ccccn3)nc3ccccc23)cc1S(=O)(=O)N(C)C | 26.6 µM (inactive)
Cc1ccc2nc(NC(=O)CSCC(=O)OCC(=O)c3ccc(Br)cc3)sc2c1 | 0.33 µM
COc1cc(-c2nc(C(=O)NCC3CCCO3)cc3c2[nH]c2ccccc23)cc(OC)c1OC (stereo not given) | 18 µM
COc1ccc(C(=O)Nc2ccccc2C(=O)NCc2ccco2)cc1OC | 61.7 µM (inactive)
COc1ccc(N(CC(=O)N2CCN(c3ccc(Cl)cc3)CC2)S(=O)(=O)c2c(C)n[nH]c2C)cc1 | > 80 µM (inactive)
CCc1ccc(/C=C2\SC(=S)N(CCCC(=O)Nc3ccccn3)C2=O)cc1 | 1.58 µM
COc1cc(Br)c(C(=O)c2nccc3cc(OC)c(OC)cc23)cc1OC | > 80 µM (inactive)
COc1ccc(C(C(=O)NC2CCCCC2)N(C(=O)CCl)c2ccc(OC)cc2)cc1 (stereo not given) | 0.65 µM
CCCN1C(=O)/C(=C/c2c(N3CCNC(=O)C3CC(=O)OCC)nc3c(C)cccn3c2=O)SC1=S (stereo not given) | 24.4 µM (inactive)
CCOCCCNc1nc2c(C)cccn2c(=O)c1/C=C1\SC(=S)N(C(C)CC)C1=O (stereo not given) | > 80 µM (inactive)
CC(C)(C)c1ccc(-c2noc(CCC(=O)N3CCOCC3)n2)cc1 | > 80 µM (inactive)
CC(=C/c1ccco1)/C=N/NC(=O)CSc1nnc(SCc2ccc(C)cc2)s1 | > 80 µM (inactive)
COc1ccc(/C=N/OCC(=O)NC(c2ccccc2)c2ccccc2)cc1OC | > 80 µM (inactive)
CCc1ccc2nc(Nc3nc(COC)cc(=O)[nH]3)nc(C)c2c1 | > 80 µM (inactive)
CCOC(=O)Cc1ccc(NC(=O)c2ccc(C(C)(C)C)cc2)cc1 | 0.25 µM

Structure (SMILES) | IC50
CC1(C)CC2CC(C)(CN2S(=O)(=O)c2ccc(C(=O)Nc3ccc(S(=O)(=O)N4CCOCC4)cc3)cc2)C1 (stereo not given) | > 80 µM (inactive)
CC(C)(C)c1ccc(-c2nnc(SCC(=O)NC3CC3)o2)cc1 | > 80 µM (inactive)
O=C(N/N=C/c1cccnc1)c1cc(-c2ccccc2OCc2ccccc2)n[nH]1 | > 80 µM (inactive)
CN1C(=O)c2cccc3c(S(=O)(=O)Nc4ccccc4F)ccc1c23 | 35.8 µM (inactive)
CN(C)C(=O)CCc1nc(-c2ccc(C(C)(C)C)cc2)no1 | > 80 µM (inactive)
O=C(O)COc1ccc(-c2nccc(-c3ccccn3)n2)cc1 | 0.22 µM
COC(=O)C(C)Oc1cc(C)cc2oc(=O)c3c(c12)CCC3 (stereo not given) | 49.9 µM (inactive)
Cc1ccc(Nc2nc(N3CCOCC3)nc(N3CCOCC3)n2)cc1C | > 80 µM (inactive)
CCOC(=O)CNC(=O)CSc1nnc(NC(=O)c2ccc(C)cc2)s1 | 5.88 µM
C=CCOC(=O)COc1cc(C)cc2oc(=O)c3c(c12)CCC3 | > 80 µM (inactive)
Cc1ccc(C)c(-n2nnnc2Sc2nnnn2-c2ccccc2)c1 | 1.42 µM
COc1ccc(-c2ccc(C(C)=O)cc2)cc1[C@H]1[C@H]2C=CC[C@@H](C)[C@@H]2C(=O)N1Cc1ccccc1 | > 80 µM (inactive)
COc1ccc(C=C(C(C)=O)C(C)=O)cc1OC | 6.23 µM
C/C(=N\Nc1nc(Nc2ccccc2)nc(N2CCOCC2)n1)c1cccs1 | > 80 µM (inactive)
NNC(=O)COc1ccc(-c2nccc(-c3ccc(F)cc3)n2)cc1 | 1.79 µM
COc1cc(OC)cc(-c2cc3nc(C)c(CCC(=O)Nc4nc(C)cs4)c(C)n3n2)c1 | 5.28 µM
CCOc1ccc(/C=C2\SC(=S)N(CCCC(=O)NCCCN3CCOCC3)C2=O)cc1 | 0.52 µM
Cc1nc2cc(-c3cccc(F)c3)nn2c(C)c1CCC(=O)N1CCC2(CC1)OCCO2 | 20.7 µM (inactive)
CC(C)(C)c1ccc(-n2ncc3c2CCCC3NC(=O)C2(C(N)=O)CC2)cc1 (stereo not given) | > 80 µM (inactive)
Cn1nc(-c2ccc(Cl)cc2)c2cc(C(=O)N3CCCC3)sc21 | > 80 µM (inactive)
CCOC(=O)C(=CNc1cc(C)ccc1C)C(=O)OCC | > 80 µM (inactive)
CC(C)C(c1nnnn1Cc1ccccc1)N(Cc1ccco1)Cc1cccs1 (stereo not given) | 73.6 µM (inactive)
C=CCOc1ccc(/C=C2\SC(=S)N(CCC(=O)O)C2=O)cc1 | < 0.16 µM
COc1cc(/C(C)=N\NC(N)=S)cc(OC)c1OC | 72.5 µM (inactive)
COc1ccccc1/C=C1\SC(=S)N(CCC(=O)Nc2nnc(C)s2)C1=O | > 80 µM (inactive)

Structure (SMILES) | IC50
COc1cccc(/C=C2/SC(=S)N(CCCC(=O)Nc3ccc(O)cc3)C2=O)c1 | 29.5 µM (inactive)
O=S(=O)(NCc1ccncc1)c1ccc(Br)s1 | > 80 µM (inactive)
CCOc1ccc(-c2cc(CCCC(=O)NCc3ccco3)no2)cc1 | > 80 µM (inactive)
O=C(CCCc1nc(-c2ccccc2Cl)no1)NC1CCCC1 | 1.02 µM
NC(=S)N=Nc1c(O)n(Cc2ccccc2)c2ccccc12 | 23.9 µM (inactive)
Cc1cc(-c2cc(C(=O)NCc3ccccc3)on2)nc(S(C)(=O)=O)n1 | 3.91 µM
Cc1c(CCC(=O)N2CCC(C(=O)O)(c3ccccc3)CC2)c(=O)oc2cc3oc4c(c3cc12)CCCC4 | 4.93 µM
COc1ccc(OCc2cccc(C(=O)Nn3cc([N+](=O)[O-])cn3)c2)cc1 | 1.85 µM
COc1cc(-c2cc(=O)c3c(O)c(OC)c(OC)c(OC)c3o2)cc(OC)c1OC | > 80 µM (inactive)
O=C(CN1C(=O)c2ccccc2S1(=O)=O)c1ccc(Cl)cc1Cl | 0.78 µM
CC(C)(C)C(=O)/C(=C/c1ccncc1)n1cncn1 | 2.89 µM
Cc1cc(C)nc(Sc2ccc([N+](=O)[O-])cc2[N+](=O)[O-])n1 | 11.7 µM
CCn1c(=S)[nH]c2cc(S(=O)(=O)N3CCCCC3)ccc21 | > 80 µM (inactive)
O=C(O)CCSc1nc2ccccc2s1 | 6.75 µM
CC(C)(C)c1ccc(-c2noc(CCC(N)=O)n2)cc1 | < 0.16 µM
O=C(Nc1ccc(NC(=O)c2cc3ccccc3o2)cc1)c1ccc2c(c1)OCCO2 | > 80 µM (inactive)
CCN(CC)S(=O)(=O)c1ccc(N2CCOCC2)c(NC(=O)c2[nH]c(C)c(C(C)=O)c2C)c1 | 47 µM (inactive)
Cc1nc2cc(-c3ccc(Cl)cc3)nn2c(C)c1CCC(=O)NC(C)c1ccc2c(c1)OCCO2 (stereo not given) | 0.7 µM
O=C(Nc1cccc(Br)c1)c1ccc2c(c1)SC1=NS(=O)(=O)CCN12 | > 80 µM (inactive)
CC(C)CCNC(=O)CCCOc1cc(=O)n(C)c2ccccc12 | 70.4 µM (inactive)
CCc1sc(C(=O)Nc2cccc(-n3cnnn3)c2)cc1C | > 80 µM (inactive)
Oc1cc(O)cc(-c2cc3ccc(O)cc3o2)c1 | > 80 µM (inactive)
CCN1C(=O)c2cccc3c(S(=O)(=O)NCC4CCCO4)ccc1c23 (stereo not given) | > 80 µM (inactive)
C(=N\Nc1nc(Nc2ccccc2)nc(Nc2ccccc2)n1)/c1cccnc1 | > 80 µM (inactive)
Cn1c(=O)n(C)c2cc(NS(=O)(=O)c3ccccc3)ccc21 | 51.8 µM (inactive)

Structure (SMILES) | IC50
CCNC(=O)CCc1nc(-c2ccc(C(C)(C)C)cc2)no1 | > 80 µM (inactive)
O=C(CN1C(=O)c2ccccc2S1(=O)=O)N1CCc2ccccc21 | 1.76 µM
COc1cc(C(=O)Nc2cc(C)c(OCC(=O)N3CCOCC3)c(C)c2)cc(OC)c1OC | > 80 µM (inactive)
O=C(NNC(=O)C12CC3CC(CC(C3)C1)C2)c1cccc(O)c1 | > 80 µM (inactive)
CCC(C)N1C(=O)/C(=C/c2c(NCCCOC(C)C)nc3c(C)cccn3c2=O)SC1=S (stereo not given) | > 80 µM (inactive)
CCOC(=O)C1CCN(c2ncnc3c2cnn3-c2ccc(OC)cc2)CC1 | > 80 µM (inactive)
CCCCOc1ccc(NC(=O)C(=O)NCCCn2ccnc2)cc1 | > 80 µM (inactive)
Cn1c(=O)cc(OCCCC(=O)N2CCCCC2)c2ccccc21 | > 80 µM (inactive)
CCN(CC)CCOC(=O)c1ccc(NC(=O)CCCN2C(=O)S/C(=C/c3ccc(OC)cc3)C2=S)cc1 | 1.48 µM
O=c1cccc2c1c1cc[nH]c3ccc(=O)n2c31 | 2.3 µM
CNC(=O)c1cccn(Cc2ccc(C(F)(F)F)cc2)c1=O | 20.9 µM (inactive)
CNC(=O)c1cc(Nc2nnc(-c3ccc(O)cc3)c3ccccc23)ccc1OC | > 80 µM (inactive)
COc1cccc(Cn2nnc(C(=O)Nc3cc(Cl)ccc3OC)c2N)c1 | > 80 µM (inactive)
CCC(C)NC(=O)c1c(N)n(/N=C/c2ccccn2)c2nc3ccccc3nc12 (stereo not given) | 22.7 µM (inactive)
Cc1c(CCC(=O)NCCCn2ccnc2)c(=O)oc2c(C)c3oc4c(c3cc12)CCCC4 | 11 µM
Cc1ccc(-c2nsc3c(N4CCC(C(N)=O)CC4)ncnc23)cc1 | 78.1 µM (inactive)
COc1ccc(OC)c(C2CC(=O)Nc3cc(OC)c(OC)c(OC)c32)c1 (stereo not given) | > 80 µM (inactive)
CCOc1ccc(NC(=O)CCCc2cc(-c3ccc(OCC)cc3)on2)cc1 | > 80 µM (inactive)
O=C(NNC(=O)c1ccccc1O)c1ccc(Cl)c(S(=O)(=O)N2CCc3ccccc32)c1 | > 80 µM (inactive)
CCC(CC)C(=O)Nc1ccc(Sc2ccc([N+](=O)[O-])cc2)cc1 | 6.83 µM
COc1ccc(-c2ccc(OC)c([C@H]3[C@H]4C=CC[C@@H](C)[C@@H]4C(=O)N3Cc3ccccc3)c2)cc1C | > 80 µM (inactive)
O=C(Nc1nc2c(Br)cc(Br)cc2c(=O)s1)c1ccco1 | 2.52 µM
CCOC(=O)C1CCN(c2ncnc3c2cnn3-c2ccc(Cl)cc2)CC1 | 0.39 µM
COc1ccc(/C=C2/SC(=S)N(CCCC(=O)Nc3ccc(O)cc3)C2=O)cc1OC | > 80 µM (inactive)
CC(C)(C)c1ccc(-c2cc(N)n[nH]2)cc1 | 6.02 µM
